Source: ChEMBL document CHEMBL4699634, “Series of Novel and Highly Potent Cyclic Peptide PCSK9 Inhibitors Derived from an mRNA Display Screen and Optimized via Structure-Based Design” (J Med Chem, 2020)
Numbered stars: 1 amine (or outer) side, 2 acyl side, 3 side chain; on linkers, the order of the positions; unused ones are H or OH. Bridge positions count the residues as written; N and C are the ends. Square brackets hold non-standard residues; d marks the D form. Peptide text beside a SMILES is read from it. Trp(5-F) = N[C@@H](Cc1c[nH]c2ccc(F)cc12)C(=O)O; X3 = O=C(CCSCc1cc(F)cc(CSCCN[*:1])c1)[*:2]; Lys(Me3) = C[N+](C)(C)CCCC[C@H](N)C(=O)O; X1 = O=C(CCSCc1cccc(CSCCN[*:1])c1)[*:2]; mXylylene = c1cc(C[*:1])cc(C[*:2])c1; αMeP = C[C@@]1(C(=O)O)CCCN1; Mpa = O=C(O)CCS

Columns and labels:
[1] = Protein binding in mouse plasma at 2.5 uM measured after 4 hrs by equilibrium dialysis based LC-MS/MS analysis; assay type: ADME, cell-free; conditions: read-out: PPB (converted)
[2] = Enzymatic stability assessed as bovine pancreatic trypsin-mediated compound hydrolysis by measuring parent compound remaining at 100 uM incubated for 1 hr by LC-MS/MS analysis; assay type: ADME, Bos taurus; conditions: cattle, read-out: Stabilty
[3] = Clearance in C57BL/6 mouse at 1 mg/kg, iv by LC-MS/MS analysis; assay type: ADME, organism-based; conditions: in vivo
[4] = Volume of distribution at steady state in C57BL/6 mouse at 1 mg/kg, iv by LC-MS/MS analysis; assay type: ADME, organism-based; conditions: in vivo, read-out: Vdss
[5] = Enzymatic stability assessed as porcine pepsin-mediated compound hydrolysis by measuring parent compound remaining at 100 uM incubated for 1 hr by LC-MS/MS analysis; assay type: ADME, Sus scrofa; conditions: pig, read-out: Stabilty
Chymotrypsinogen A = Chymotrypsinogen A (Bos taurus, UniProt P00766); experiment: Enzymatic stability assessed as bovine pancreatic alpha-chymotrypsin-mediated compound hydrolysis by measuring parent compound remaining at 100 uM incubated for 1 hr by LC-MS/MS analysis; assay type: ADME; conditions: cattle, read-out: Stabilty
[6] = AUC (0 to infinity) in C57BL/6 mouse at 1 mg/kg, iv by LC-MS/MS analysis; assay type: ADME, organism-based; set-up: route intravenous, time infinity, dose 1 mg/kg; conditions: C57BL/6, mouse, in vivo
[7] = Half life in C57BL/6 mouse whole blood at 100 uM by LC-MS/MS analysis; assay type: ADME, tissue-based
[8] = AUC (0 to X) in C57BL/6 mouse at 1 mg/kg, iv by LC-MS/MS analysis; assay type: ADME, organism-based; set-up: dose 1 mg/kg; conditions: in vivo
[9] = Half life in cynomolgus monkey whole blood at 100 uM by LC-MS/MS analysis; assay type: ADME, tissue-based, Macaca fascicularis
[10] = molecular target: Chymotrypsin-like elastase family member 1 (Sus scrofa, UniProt P00772); experiment: Enzymatic stability assessed as porcine type 4 pancreatic elastase-mediated compound hydrolysis by measuring parent compound remaining at 100 uM incubated for 1 hr by LC-MS/MS analysis; assay type: ADME; conditions: pig, read-out: Stabilty
[11] = Half life in C57BL/6 mouse at 1 mg/kg, iv by LC-MS/MS analysis; assay type: ADME, organism-based; conditions: in vivo
[12] = molecular target: Proprotein convertase subtilisin/kexin type 9 (Homo sapiens, UniProt Q8NBP7); experiment: Inhibition of AlexaFluor647-tagged cyclic peptide binding to avi-tagged-biotinylated human PCSK9 measured after 2 hrs by Lance Streptavidin Europium based FRET assay
[13] = Cytotoxicity against Wistar rat isolated peritoneal cells assessed as reduction in cell viability up to 60 uM measured after 30 mins; assay type: cell-based; conditions: peritoneal macrophage cell, 0.5 h
[14] = Induction of mast cell degranulation in Wistar rat isolated peritoneal cells assessed as effect on histamine release measured after 30 mins; assay type: tissue-based
PCSK9/LDLR = PCSK9/LDLR (Homo sapiens, UniProt Q8NBP7); experiment: Inhibition of avi-tagged-biotinylated human PCSK9 interaction with His-tagged human LDLR EGFa domain by LANCE Ulight Streptavidin based TR-FRET assay; assay type: protein assay
[15] = Half life in cynomolgus monkey at 0.5 mg/kg, iv by LC-MS/MS analysis; assay type: ADME, organism-based, Macaca fascicularis; conditions: in vivo
[16] = AUC (0 to X) in cynomolgus monkey at 0.5 mg/kg, iv by LC-MS/MS analysis; assay type: ADME, organism-based, Macaca fascicularis; set-up: dose 0.5 mg/kg; conditions: in vivo
[17] = Half life in Wistar Han rat at 1 mg/kg, iv by LC-MS/MS analysis; assay type: ADME, organism-based; conditions: in vivo
[18] = AUC (0 to infinity) in cynomolgus monkey at 0.5 mg/kg, iv by LC-MS/MS analysis; assay type: ADME, organism-based, Macaca fascicularis; set-up: time infinity, route intravenous, dose 0.5 mg/kg; conditions: in vivo
[19] = AUC (0 to X) in Wistar Han rat at 1 mg/kg, iv by LC-MS/MS analysis; assay type: ADME, organism-based; set-up: dose 1 mg/kg; conditions: in vivo
[20] = Protein binding in Wistar Han rat plasma; assay type: ADME, cell-free; conditions: read-out: PPB (converted)
[21] = Protein binding in cynomolgus monkey plasma; assay type: ADME, cell-free, Macaca fascicularis; conditions: read-out: PPB (converted)
[22] = Volume of distribution at steady state in cynomolgus monkey at 0.5 mg/kg, iv by LC-MS/MS analysis; assay type: ADME, organism-based, Macaca fascicularis; conditions: in vivo, read-out: Vdss
[23] = Volume of distribution at steady state in Wistar Han rat at 1 mg/kg, iv by LC-MS/MS analysis; assay type: ADME, organism-based; conditions: in vivo, read-out: Vdss
[24] = Clearance in cynomolgus monkey at 0.5 mg/kg, iv by LC-MS/MS analysis; assay type: ADME, organism-based, Macaca fascicularis; conditions: in vivo
[25] = AUC (0 to infinity) in Wistar Han rat at 1 mg/kg, iv by LC-MS/MS analysis; assay type: ADME, organism-based; set-up: route intravenous, time infinity, dose 1 mg/kg; conditions: in vivo
[26] = Clearance in Wistar Han rat at 1 mg/kg, iv by LC-MS/MS analysis; assay type: ADME, organism-based; conditions: in vivo
[27] = Rattus norvegicus, Wistar, Mast cell, 0.5 h, read-out: EC50

Sequence of Chymotrypsin-like elastase family member 1 (P00772 whole entry): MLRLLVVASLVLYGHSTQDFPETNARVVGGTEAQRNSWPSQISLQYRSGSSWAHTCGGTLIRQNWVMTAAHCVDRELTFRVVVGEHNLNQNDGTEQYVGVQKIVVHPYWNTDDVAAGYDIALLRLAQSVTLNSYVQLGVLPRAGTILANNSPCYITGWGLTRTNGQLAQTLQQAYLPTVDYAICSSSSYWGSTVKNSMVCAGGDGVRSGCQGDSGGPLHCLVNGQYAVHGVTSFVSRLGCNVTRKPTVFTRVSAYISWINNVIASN
Sequence of PCSK9/LDLR (Q8NBP7 31-152 limits assumed): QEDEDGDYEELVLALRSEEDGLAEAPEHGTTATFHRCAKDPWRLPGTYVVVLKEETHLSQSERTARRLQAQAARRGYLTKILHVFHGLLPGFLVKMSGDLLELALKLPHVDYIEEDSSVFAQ
Sequence of PCSK9/LDLR (Q8NBP7 153-692 limits assumed): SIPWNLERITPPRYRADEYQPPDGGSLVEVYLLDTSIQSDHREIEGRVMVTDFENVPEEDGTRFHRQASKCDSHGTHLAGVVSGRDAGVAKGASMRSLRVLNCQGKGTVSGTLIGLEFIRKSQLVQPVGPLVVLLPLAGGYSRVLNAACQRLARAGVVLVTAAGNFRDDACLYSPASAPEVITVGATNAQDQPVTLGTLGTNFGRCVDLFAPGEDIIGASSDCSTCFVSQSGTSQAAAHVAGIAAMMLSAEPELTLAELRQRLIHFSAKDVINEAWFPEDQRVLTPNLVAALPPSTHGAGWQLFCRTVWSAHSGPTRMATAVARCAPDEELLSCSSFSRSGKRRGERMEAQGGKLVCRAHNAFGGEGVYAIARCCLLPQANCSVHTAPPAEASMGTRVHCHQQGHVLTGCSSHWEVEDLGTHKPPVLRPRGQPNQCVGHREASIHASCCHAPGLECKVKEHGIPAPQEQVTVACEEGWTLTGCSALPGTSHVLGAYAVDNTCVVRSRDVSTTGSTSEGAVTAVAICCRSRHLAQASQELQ
Sequence of PCSK9/LDLR (P01130 22-860 partner limits assumed): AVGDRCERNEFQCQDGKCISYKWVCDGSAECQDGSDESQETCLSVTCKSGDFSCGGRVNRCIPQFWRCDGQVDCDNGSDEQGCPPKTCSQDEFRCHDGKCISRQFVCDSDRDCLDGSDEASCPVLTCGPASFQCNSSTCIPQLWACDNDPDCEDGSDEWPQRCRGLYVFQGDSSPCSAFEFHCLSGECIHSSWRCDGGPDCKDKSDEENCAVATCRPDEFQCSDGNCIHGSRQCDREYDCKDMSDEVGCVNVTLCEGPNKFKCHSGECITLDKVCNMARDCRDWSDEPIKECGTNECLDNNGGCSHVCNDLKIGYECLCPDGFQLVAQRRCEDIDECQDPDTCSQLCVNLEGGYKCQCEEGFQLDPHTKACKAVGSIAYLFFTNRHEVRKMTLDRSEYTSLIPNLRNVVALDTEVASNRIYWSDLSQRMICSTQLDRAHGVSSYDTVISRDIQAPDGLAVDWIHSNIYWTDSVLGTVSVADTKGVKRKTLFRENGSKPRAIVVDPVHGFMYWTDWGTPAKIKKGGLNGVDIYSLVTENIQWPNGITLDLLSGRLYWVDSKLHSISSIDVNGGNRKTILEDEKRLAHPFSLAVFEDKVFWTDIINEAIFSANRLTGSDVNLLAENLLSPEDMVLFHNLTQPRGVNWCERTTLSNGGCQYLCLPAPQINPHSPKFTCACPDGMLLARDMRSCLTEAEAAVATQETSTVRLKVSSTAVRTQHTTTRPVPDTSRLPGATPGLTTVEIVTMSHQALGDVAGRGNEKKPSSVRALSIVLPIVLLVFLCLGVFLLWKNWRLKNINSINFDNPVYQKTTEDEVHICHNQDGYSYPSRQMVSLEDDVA
Sequence of Proprotein convertase subtilisin/kexin type 9 (Q8NBP7 31-152 limits assumed): as the sequence (Q8NBP7 31-152 limits assumed) above
Sequence of Proprotein convertase subtilisin/kexin type 9 (Q8NBP7 153-692 limits assumed): as the sequence (Q8NBP7 153-692 limits assumed) above

SMILES	fraction unbound at 4 h, 2.5 µM [1]	remaining at 1 h, 100 µM [2] [%]	clearance [3] [mL/min/kg]	Vd [4] [L/kg]	remaining at 1 h, 100 µM [5] [%]	remaining at 1 h, 100 µM (Chymotrypsinogen A) [%]	AUC(0-inf) [6] [µM·h]	half-life at 100 µM [7] [h]	AUC [8] [µM·h]	half-life at 100 µM [9] [h]	remaining at 1 h, 100 µM [10] [%]	half-life [11] [h]	Ki [12] [nM]	Activity [13]	Ki (PCSK9/LDLR) [nM]	further results
COc1ccc(C[C@@H]2NC(=O)[C@H]([C@@H](C)O)NC(=O)[C@@H]3CCC(=O)NCc4cccc(c4)C[C@H](NC(=O)[C@@H](C)NC(=O)[C@H](C)NC(=O)CCSCc4cccc(c4)CSCCNC(=O)[C@]4(C)CCCN4C2=O)C(=O)N[C@@H](Cc2c[nH]c4ccc(F)cc24)C(=O)N3)cc1	0.015	100	16	0.23	98.2	2.5	0.841	> 6	0.84	1.88	100	0.66	1.5	–	–	–
C[C@@]12CCCN1C(=O)[C@H](Cc1ccc(O)cc1)NC(=O)[C@H](Cc1cnc[nH]1)NC(=O)[C@H](CC(=O)O)NC(=O)[C@H](Cc1c[nH]c3ccc(F)cc13)NC(=O)[C@H](Cc1c[nH]c3ccc(F)cc13)NC(=O)CNC(=O)[C@H](CCCCN)NC(=O)CCSCc1cccc(c1)CSC[C@@H](C(N)=O)NC2=O ([Mpa]KG[Trp(5-F)][Trp(5-F)]DHY[αMeP]C-NH2; linker 1-10 via mXylylene)	0.0515	0.9	65.4	1.2	94	10.9	0.181	5.19	0.185	> 6	52.7	0.33	4	Non-Toxic	14	EC50 [14, 27]: 6670 nM
NCCCC[C@@H]1NC(=O)CCSCc2cccc(c2)CSC[C@@H](C(N)=O)NC(=O)[C@@H]2CCCN2C(=O)[C@H](Cc2ccc(O)cc2)NC(=O)[C@H](Cc2c[nH]cn2)NC(=O)[C@H](CC(=O)O)NC(=O)[C@H](Cc2c[nH]c3ccc(F)cc23)NC(=O)[C@H](Cc2c[nH]c3ccc(F)cc23)NC(=O)CNC1=O	0.0498	1.2	51.7	0.7	95	12	0.242	1.05	0.241	–	60.7	1.04	–	Non-Toxic	110	EC50 [14, 27]: 6670 nM
COc1ccc(C[C@@H]2NC(=O)[C@H]([C@@H](C)O)NC(=O)[C@@H]3CCCN3C(=O)[C@@H]3Cc4cn(c5ccc(F)cc45)Cc4cn(nn4)-c4cc(cc(c4)CSCCC(=O)N[C@@H](C)C(=O)N[C@H](C)C(=O)N[C@@H](Cc4c[nH]c5ccc(F)cc45)C(=O)N3)CSCCNC(=O)[C@]3(C)CCCN3C2=O)cc1	–	99.2	–	–	98.9	91.8	–	–	–	> 6	96.6	–	1.36	–	–	half-life [15]: 2.84 h; AUC [16]: 0.304 µM·h; half-life [17]: 0.06 h; AUC(0-inf) [18]: 0.306 µM·h; AUC [19]: 0.0194 µM·h; fraction unbound [20]: 0.003; fraction unbound [21]: 0.025; Vd [22]: 1.06 L/kg; Vd [23]: 0.48 L/kg; clearance [24]: 20.1 mL/min/kg; AUC [25]: 0.0233 µM·h
COc1ccc(C[C@@H]2NC(=O)[C@H](Cc3cnc[nH]3)NC(=O)[C@H](CC(=O)O)NC(=O)[C@H](Cc3c[nH]c4ccc(F)cc34)NC(=O)[C@H](Cc3c[nH]c4ccc(F)cc34)NC(=O)[C@@H](C)NC(=O)[C@H](CCCC[N+](C)(C)C)NC(=O)CCSCc3cccc(c3)CSCCNC(=O)[C@]3(C)CCCN3C2=O)cc1 (cyclo(DHY(Me)[αMeP][X1][Lys(Me3)][dA][Trp(5-F)][Trp(5-F)]))	0.007	98.4	6.2	0.45	87.5	24.2	0.933	> 6	0.896	–	68.2	1.16	9.5	Non-Toxic	–	half-life [17]: 2.46 h; clearance [26]: 3.16 mL/min/kg; AUC [19]: 3.65 µM·h; EC50 ([14]; mast cell): Non-Toxic; fraction unbound [20]: 0.001; Vd [23]: 0.17 L/kg; AUC(0-inf) ([25]; Wistar Han): 3.65 µM·h
CC(C)[C@H]1NC(=O)[C@H](CCCCN)NC(=O)CCSCc2cccc(c2)CSCCNC(=O)[C@]2(C)CCCN2C(=O)[C@H](Cc2ccc(O)cc2)NC(=O)[C@H](Cc2cnc[nH]2)NC(=O)[C@H](CC(=O)O)NC(=O)[C@H](Cc2c[nH]c3ccc(F)cc23)NC(=O)[C@H](Cc2c[nH]c3ccc(F)cc23)NC1=O	0.001	94.3	4.62	0.1	100	76.4	2.51	> 6	2.49	–	100	0.25	6.3	–	17.6	–
C[C@H]1NC(=O)[C@H](CCCCN)NC(=O)CCSCc2cccc(c2)CSCCNC(=O)[C@]2(C)CCCN2C(=O)[C@H](Cc2ccc(O)cc2)NC(=O)[C@H](Cc2cnc[nH]2)NC(=O)[C@H](CC(=O)O)NC(=O)[C@H](Cc2c[nH]c3ccc(F)cc23)NC(=O)[C@H](Cc2c[nH]c3ccc(F)cc23)NC1=O	0.0077	79.5	24.2	0.29	93.7	42.7	0.492	3.1	0.491	> 6	99.1	0.78	4.2	–	23.3	–
C[C@H]1NC(=O)[C@H](CCCCN)NC(=O)CCSCc2cc(F)cc(c2)CSCCNC(=O)[C@]2(C)CCCN2C(=O)[C@H](Cc2ccc(O)cc2)NC(=O)[C@H](Cc2cnc[nH]2)NC(=O)[C@H](CC(=O)O)NC(=O)[C@H](Cc2c[nH]c3ccc(F)cc23)NC(=O)[C@H](Cc2c[nH]c3ccc(F)cc23)NC1=O (cyclo(DHY[αMeP][X3]K[dA][Trp(5-F)][Trp(5-F)]))	–	91	–	–	96.6	20.1	–	> 6	–	> 6	96.5	–	1.5	–	–	–
